One assay addresses T1, KpDHOase (Klebsiella pneumoniae subsp. pneumoniae, UniProt A6T7D6).
T1 construct: made in house; host or cells: E. coli BL21(DE3)
Nature of the assay: rapid spectrophotometric DHOase enzyme assay (hydrolysis of DHO). Format: biochemical, Klebsiella pneumonia. Particulars: PLU 200 μM. The method, then: (§1) A rapid spectrophotometric assay was used to determine the activity of DHOase. Briefly, the hydrolysis of DHO was measured at 25 °C as the decrease in absorbance at 230 nm. The purified DHOase was added to a 2 mL solution containing 0.5 mM DHO and 100 mM Tris–HCl at pH 8.0 to start the reaction. The extinction coefficient of DHO was 0.92 mM^−1·cm^−1 at 230 nm. The hydrolysis of DHO was monitored using a UV/Vis spectrophotometer (Hitachi U 3300; Hitachi High-Technologies, Tokyo, Japan). A unit of activity was defined as the amount of enzyme catalyzing the hydrolysis of 1 μmol DHO/min, and the specific activity was expressed in terms of units of activity per mg of enzyme. The kinetic parameters Km and Vmax were determined from a nonlinear plot by fitting the hydrolyzing rate from individual experiments to the Michaelis–Menten equation (Enzyme Kinetics module of Sigma-Plot; Systat Software, Chicago, IL, USA).

Another assay concerns the target T2, StDHOase (Salmonella typhimurium, UniProt P06204).
T2 construct: made in house; host or cells: E. coli BL21(DE3)
Nature of the assay: fluorescence quenching binding assay. On the set-up: species or system Salmonella enterica serovar Typhimurium LT2. As for the experimental part:
Figure 7 The data used to calculate the Kd values of various DHOases. (A) The fluorescence emission spectra of ScDHOase with PLU of different concentrations (0–200 μM; 0, 10, 20, 50, 75, 100, 125, 150, 175, and 200 μM). The decrease in intrinsic fluorescence of protein was measured at 324 nm upon excitation at 280 nm with a spectrofluorometer. […] (B) The fluorescence emission spectra of huDHOase with PLU of different concentrations (0–200 μM). (C) The fluorescence emission spectra of StDHOase with PLU of different concentrations. (D) The fluorescence emission spectra of ScDHOase–R18A with PLU of different concentrations. (E) The fluorescence emission spectra of ScDHOase–T106A with PLU of different concentrations. […] (F) An aliquot amount of PLU was added to the enzyme solution to determine the Kd. The Kd was obtained by the following equation: ΔF = ΔFmax − Kd(ΔF/[PLU]). Data points are an average of 2–3 determinations within a 10% error.
The decrease in the intrinsic fluorescence of DHOase was measured with a spectrofluorometer (Hitachi F-2700; Hitachi High-Technologies, Japan). The Kd was obtained using the following equation: ΔF = ΔFmax − Kd(ΔF/[PLU]).
The Kd value of the purified DHOase was determined using the fluorescence quenching method as previously described for DHOase, DHPase, and DnaB helicase. Briefly, an aliquot of the compound was added into the solution containing DHOase (1 μM) and 50 mM HEPES at pH 7.0. The decrease in the intrinsic fluorescence of DHOase was measured at 324 nm upon excitation at 280 nm and 25 °C with a spectrofluorometer (Hitachi F-2700; Hitachi High-Technologies, Japan). The Kd was obtained using the following equation: ΔF = ΔFmax − Kd(ΔF/[PLU]).

In assay [1] the test system is 4T1 cells. The assay can be described thus: chromatin condensation assay (Hoechst staining). In kind it is cell-based, mouse. The method, then:
The apoptosis in 4T1 cells was assayed with Hoechst 33342 staining. The 4T1 cells were seeded in 6-well plates at a density of 5 × 10^5 cells per well in a volume of […] of culture medium. Cells were allowed to adhere for 16 h. After different treatments, cells were incubated for an additional 24 h, washed with PBS, stained with the Hoechst dye (1 μg·mL^−1) in the dark at RT for 10 min, and imaged using an inverted fluorescence microscope (Axiovert 200 M; Zeiss Axioplam, Oberkochen, Germany) at excitation and emission wavelengths (λem) of 360 and 460 nm, respectively. The apoptotic index was calculated as follows: apoptotic index = apoptotic cell number/(apoptotic cell number + nonapoptotic cell number).

The target of a further assay is DHPase. On the set-up: method as in PMID 32147511. The following applies: cited from earlier work.
Another assay deals with T3, ScDHOase (Saccharomyces cerevisiae, UniProt P20051).
T3 construct: made in house; host or cells: E. coli BL21(DE3)
T3 sequence (P20051 whole entry): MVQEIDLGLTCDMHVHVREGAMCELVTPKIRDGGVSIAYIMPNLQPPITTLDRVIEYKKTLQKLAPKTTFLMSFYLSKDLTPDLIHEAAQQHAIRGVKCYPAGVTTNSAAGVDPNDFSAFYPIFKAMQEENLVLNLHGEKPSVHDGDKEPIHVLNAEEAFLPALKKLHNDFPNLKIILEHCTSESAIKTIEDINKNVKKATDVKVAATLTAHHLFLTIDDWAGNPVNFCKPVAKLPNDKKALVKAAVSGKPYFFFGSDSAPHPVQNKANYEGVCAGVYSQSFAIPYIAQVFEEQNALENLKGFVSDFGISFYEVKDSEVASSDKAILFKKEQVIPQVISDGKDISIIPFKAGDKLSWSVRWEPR
Nature of the assay: rapid spectrophotometric DHOase enzyme assay (hydrolysis of DHO). Format: biochemical. The method, then:
PLU (50 μM) was included in the standard assay for analyzing the enzyme activity under different substrate concentrations. […] Data points are an average of three determinations within the 10% error.
as §1

Assay [2] relates to 4T1 cells. The assay can be described thus: wound-healing assay. Format: cell-based, mouse. The method, then: The wound-healing assay was performed to study whether PLU can inhibit 4T1 cell migration. Briefly, 4T1 cells were seeded in 24-well plates, incubated in serum-reduced medium for 6 h, wounded in a line across the well with a 200 μL pipette tip, and washed twice with the serum-reduced medium. After different treatments, cells were incubated for 24 h to allow migration.

For the next assay, the system named is Klebsiella pneumoniae. Nature of the assay: bacterial growth inhibition. Particulars: 100 μM PLU added at 0.5 OD600, 37 °C. Format: cell-based. The method, then:
(§2) Figure 8 Anticancer and antibacterial activities of PLU. (A) The trypan blue assay—4T1 cells incubated with PLU (10 μM). After 24 h, the anticancer potentiality was estimated. (B) The wound-healing assay—4T1 cells were seeded in 24-well plates. Cells were incubated with PLU (10 μM) for 24 h to allow migration. (C) Hoechst staining assay—an amount of 10 μM PLU-induced apoptosis with DNA fragmentation was observed. […] (E) Effects of PLU on cell survival, migration and proliferation, and nuclear condensation—a concentration of 10 μM PLU was effective for anti-4T1 cancer cells. (F) PLU inhibited bacterial growth—K. pneumoniae and S. enterica serovar Typhimurium LT2 cells were grown to 0.5 OD600 at 37 °C, and then PLU was added into the medium. […] PLU may inhibit the pyrimidine biosynthesis, resulting in its antibacterial activities.
(§3) Similar to cancer cells, bacterial cells are rapidly reproducible, and their growth might be suppressed by PLU. To test whether PLU could inhibit bacterial growth, we grew Klebsiella pneumoniae and S. enterica serovar Typhimurium LT2 cells to 0.5 OD600 at 37 °C, and then added PLU into the medium. […] Thus, PLU was also effective for antipathogen chemotherapies. PLU may inhibit pyrimidine biosynthesis, resulting in antibacterial activities.

Assay [3] concerns S. enterica serovar Typhimurium LT2. Nature of the assay: bacterial growth inhibition. In kind it is cell-based. Particulars: 100 μM PLU added at 0.5 OD600, 37 °C. The method, then: as §2, §3

The source of these data is paper PMC8267945, “Plumbagin, a Natural Product with Potent Anticancer Activities, Binds to and Inhibits Dihydroorotase, a Key Enzyme in Pyrimidine Biosynthesis” (International Journal of Molecular Sciences, 2021).

T2 sequence (P06204 whole entry): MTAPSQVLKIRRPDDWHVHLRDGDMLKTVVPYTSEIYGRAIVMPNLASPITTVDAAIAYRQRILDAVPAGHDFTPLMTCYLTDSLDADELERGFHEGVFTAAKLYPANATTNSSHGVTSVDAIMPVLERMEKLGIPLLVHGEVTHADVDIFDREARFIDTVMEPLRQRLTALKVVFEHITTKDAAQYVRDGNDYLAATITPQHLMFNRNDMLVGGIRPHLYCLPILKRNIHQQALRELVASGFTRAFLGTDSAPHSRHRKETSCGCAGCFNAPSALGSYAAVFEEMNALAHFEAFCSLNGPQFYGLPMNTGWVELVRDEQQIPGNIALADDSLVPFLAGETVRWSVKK
T1 sequence (A6T7D6 whole entry): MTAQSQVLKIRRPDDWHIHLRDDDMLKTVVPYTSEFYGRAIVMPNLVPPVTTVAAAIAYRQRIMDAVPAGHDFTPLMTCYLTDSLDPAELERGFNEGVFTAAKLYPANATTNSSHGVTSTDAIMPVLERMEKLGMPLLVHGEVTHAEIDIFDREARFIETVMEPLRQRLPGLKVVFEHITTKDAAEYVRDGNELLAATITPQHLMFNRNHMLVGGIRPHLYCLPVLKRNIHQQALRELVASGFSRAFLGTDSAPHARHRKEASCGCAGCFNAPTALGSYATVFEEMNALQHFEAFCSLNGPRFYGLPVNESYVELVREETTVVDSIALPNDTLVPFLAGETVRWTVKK

One may read the Kd as the free concentration of one partner at which half of the binding sites on the other are occupied at equilibrium, for simple one-to-one binding. A high value points to a looser complex. A word on the IC50: it is the concentration at which inhibition is half-maximal. On to `CC1=CC(=O)c2c(O)cccc2C1=O` [PLU, plumbagin], for which the “decrease of the activity of KpDHOase” value on KpDHOase is on record as 69%. Also, the Kd on StDHOase was determined as 80.3 ± 2.5 µM. Besides, at StDHOase (PLU 0–200 μM), the “quenching of StDHOase” value turned out to be 85.9%, the “λem shift of StDHOase” value amounted to 11.0 nm and the “λmax of StDHOase emission” value is on record as “from 330.5 to 319.5”. Moreover, in the assay with 4T1 cells [1] (10 μM PLU), the “apoptosis with DNA fragmentation” value came to 100%. The same molecule registered an Apoptotic rate with 4T1 cells [1] (PLU 2 μM) of 8%. For the same molecule, the half-maximal inhibitory concentration (IC50) on DHPase is 58 µM. Moreover, at ScDHOase (PLU 50 μM, different substrate concentrations), the “inhibition type (Lineweaver–Burk plot)” value is reported as “competitive inhibitor”. For the same molecule, on ScDHOase (PLU 50 μM, without PLU 69.9 ± 1.0), the “Vmax of ScDHOase in the presence of PLU” value was 64.1 ± 2.8 µmol/mg/min. Further, the “decrease of the activity of ScDHOase” value on ScDHOase (PLU 200 μM) is given as 66%. In addition, the inhibition at 10 µM in the assay with 4T1 cells [2] (Mus musculus, 10 μM PLU, 24 h, read-out: inhibition of cell migration) is 97%. In the assay with 4T1 cells [2] (PLU 2 μM), this molecule returned a Migration rate of 84%. For the same molecule, the “growth of K. pneumoniae” value with Klebsiella pneumoniae was “significantly inhibited the growth”. In assay [3], the “growth of S. enterica serovar Typhimurium LT2” value was “significantly inhibited the growth”.
